Experimental findings from ChEMBL document CHEMBL1129837, “Quantitative structure-activity relationships of benzoyliminothiadiazoline derivatives as angiotensin II receptor antagonists” (Bioorg Med Chem Lett, 1997) are described below.

The experiment addresses T1, Type-1 angiotensin II receptor B (Rattus norvegicus, UniProt P29089).
T1 sequence (P29089 whole entry): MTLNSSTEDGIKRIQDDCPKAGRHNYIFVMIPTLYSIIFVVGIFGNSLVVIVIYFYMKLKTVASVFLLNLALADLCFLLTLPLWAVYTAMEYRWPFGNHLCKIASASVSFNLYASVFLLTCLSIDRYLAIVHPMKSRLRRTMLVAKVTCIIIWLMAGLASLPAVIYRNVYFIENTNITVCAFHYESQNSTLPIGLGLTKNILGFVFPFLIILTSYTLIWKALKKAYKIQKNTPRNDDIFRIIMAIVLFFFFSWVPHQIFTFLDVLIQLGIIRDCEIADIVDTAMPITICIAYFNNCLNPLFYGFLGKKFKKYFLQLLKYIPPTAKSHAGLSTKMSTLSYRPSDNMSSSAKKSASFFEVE
Briefly: Inhibition of binding of [125I]All at the angiotensin II type 1 receptor (AT1 receptor) in rat liver membranes. In kind it is cell membranes, Membrane.
`CCc1nn(Cc2ccc(-c3ccccc3-c3nn[nH]n3)cc2)/c(=N/C(=O)c2ccc(C(F)(F)F)cc2)s1` showed a Ki of 557 nM. With `CCc1nn(Cc2ccc(-c3ccccc3-c3nn[nH]n3)cc2)/c(=N/C(=O)c2ccc(C)cc2)s1` the figure was 48 nM; with `CCc1nn(Cc2ccc(-c3ccccc3-c3nn[nH]n3)cc2)/c(=N/C(=O)c2cccc(C)c2)s1`, 79.4 nM. With `Cc1nn(Cc2ccc(-c3ccccc3-c3nn[nH]n3)cc2)/c(=N/C(=O)c2ccccc2Cl)s1` the figure was 18 nM. With `CCc1nn(Cc2ccc(-c3ccccc3-c3nn[nH]n3)cc2)/c(=N/C(=O)c2ccc([N+](=O)[O-])cc2)s1` the figure was 141 nM; with `CCc1nn(Cc2ccc(-c3ccccc3-c3nn[nH]n3)cc2)/c(=N/C(=O)c2ccccc2C)s1`, 35.9 nM.

`CCc1nn(Cc2ccc(-c3ccccc3-c3nn[nH]n3)cc2)/c(=N/C(=O)c2ccccc2I)s1`: the affinity, expressed as Ki, was 3.86 nM. In the case of `CCc1nn(Cc2ccc(-c3ccccc3-c3nn[nH]n3)cc2)/c(=N/C(=O)c2ccccc2[N+](=O)[O-])s1` it was 3.23 nM; in that of `O=C(/N=c1\sc(C2CC2)nn1Cc1ccc(-c2ccccc2-c2nn[nH]n2)cc1)c1ccccc1Cl`, 15.1 nM. `CCc1nn(Cc2ccc(-c3ccccc3-c3nn[nH]n3)cc2)/c(=N/C(=O)c2ccccc2F)s1` gave a Ki of 7.24 nM. `CCc1nn(Cc2ccc(-c3ccccc3-c3nn[nH]n3)cc2)/c(=N/C(=O)c2cccc(F)c2)s1`: affinity was put at a Ki of 134 nM. In the case of `Cc1nn(Cc2ccc(-c3ccccc3-c3nn[nH]n3)cc2)/c(=N/C(=O)c2ccccc2C(=O)O)s1` it was 2.69 nM; in that of `CCCCc1nn(Cc2ccc(-c3ccccc3-c3nn[nH]n3)cc2)/c(=N/C(=O)c2ccccc2Cl)s1`, 200 nM. With `CCCc1nn(Cc2ccc(-c3ccccc3-c3nn[nH]n3)cc2)/c(=N/C(=O)c2ccccc2Cl)s1` the figure was 22 nM. In the case of `CCc1nn(Cc2ccc(-c3ccccc3-c3nn[nH]n3)cc2)/c(=N/C(=O)c2ccc(OC)cc2)s1` it was 28 nM; in that of `CCc1nn(Cc2ccc(-c3ccccc3-c3nn[nH]n3)cc2)/c(=N/C(=O)c2ccccc2C(F)(F)F)s1`, 6 nM; in that of `CCc1nn(Cc2ccc(-c3ccccc3-c3nn[nH]n3)cc2)/c(=N/C(=O)c2ccccc2)s1`, 36 nM. Turning to `CCc1nn(Cc2ccc(-c3ccccc3-c3nn[nH]n3)cc2)/c(=N/C(=O)c2ccccc2Cl)s1`, the Ki is 3.39 nM. With `CCc1nn(Cc2ccc(-c3ccccc3-c3nn[nH]n3)cc2)/c(=N/C(=O)c2cccc(Cl)c2)s1` the figure was 190 nM; with `CCc1nn(Cc2ccc(-c3ccccc3-c3nn[nH]n3)cc2)/c(=N/C(=O)c2ccc(Br)cc2)s1`, 320 nM. For the molecule `CCc1nn(Cc2ccc(-c3ccccc3-c3nn[nH]n3)cc2)/c(=N/C(=O)c2ccccc2Br)s1`, the inhibition constant Ki was 3.47 nM.

With `CCc1nn(Cc2ccc(-c3ccccc3-c3nn[nH]n3)cc2)/c(=N/C(=O)c2ccc(F)cc2)s1`, the Ki was 102 nM. Take `CCc1nn(Cc2ccc(-c3ccccc3-c3nn[nH]n3)cc2)/c(=N/C(=O)c2ccccc2OC)s1`: the inhibitory constant (Ki) was 2.5 nM. With `CCc1nn(Cc2ccc(-c3ccccc3-c3nn[nH]n3)cc2)/c(=N/C(=O)c2ccc(Cl)cc2)s1` the figure was 330 nM. With `CCCc1nn(Cc2ccc(-c3ccccc3-c3nn[nH]n3)cc2)/c(=N/C(=O)c2ccccc2C(=O)O)s1` the figure was 2 nM; with `CCc1nn(Cc2ccc(-c3ccccc3-c3nn[nH]n3)cc2)/c(=N/C(=O)c2cccc(C(F)(F)F)c2)s1`, 447 nM. With `CCc1nn(Cc2ccc(-c3ccccc3-c3nn[nH]n3)cc2)/c(=N/C(=O)c2cccc(Br)c2)s1` the figure was 300 nM; with `CCc1nn(Cc2ccc(-c3ccccc3-c3nn[nH]n3)cc2)/c(=N/C(=O)c2ccccc2C(=O)O)s1`, 0.619 nM; with `CCc1nn(Cc2ccc(-c3ccccc3-c3nn[nH]n3)cc2)/c(=N/C(=O)c2cccc([N+](=O)[O-])c2)s1`, 141 nM. `CCc1nn(Cc2ccc(-c3ccccc3-c3nn[nH]n3)cc2)/c(=N/C(=O)c2cccc(OC)c2)s1` had a Ki of 49 nM.
